What was measured:
[1] = test system: A2780 ovarian cells; assay: A2780 ovarian cell proliferation assay in lipid reduced medium, without palmitate (MTT); type: cell-based; details: Homo sapiens, A2780, 96 h; read-out: pIC50 A2780 Ovarian Cell, Without Palmitate (converted)
[2] = biological target: T1, hFASN enzyme (full length) (Homo sapiens, UniProt P49327); assay: Fatty Acid Synthase (FASN) inhibition scintillation proximity assay; type: biochemical; details: for inhibition at 10 µM: read-out: Human FASN % inhibition @ 10 μM, 10 μM test compound; for IC50: read-out: Human FASN pIC50 (converted)
T1 construct: 10 μL hFASN enzyme (full length, 300 ng, purified in house); made in house
How it was run: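 Proximity read-out: hydrophobic ^3H-palmitate formed from ^3H-acetyl-CoA and malonyl-CoA binds streptavidin imaging beads, imaged at 610±20 nm at least 24 h after stopping. Enzyme was in-house purified full-length hFASN, 300 ng, in pH 7.5 phosphate/DTT buffer; compound series 30 μM down to 0.01 μM, normalized to controls, 4-parameter fit.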

[3] = test system: A2780 ovarian cells; assay: A2780 ovarian cell proliferation assay in lipid reduced medium, with palmitate (MTT); type: cell-based; details: Homo sapiens, A2780, 96 h; read-out: pIC50 A2780 Ovarian Cell, With Palmitate (converted)
How it was run: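 In this palmitate-supplemented format, compound dilutions (30 μM down to 0.01 μM) are added to cells in lipid-reduced serum with 25 μM palmitate, 0.2% fatty-acid-free BSA and 0.25% ethanol. After four days (96 h) MTT absorbance at 544 nm is recorded and fitted by minimum sum of squares.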

T1 sequence (P49327 whole entry): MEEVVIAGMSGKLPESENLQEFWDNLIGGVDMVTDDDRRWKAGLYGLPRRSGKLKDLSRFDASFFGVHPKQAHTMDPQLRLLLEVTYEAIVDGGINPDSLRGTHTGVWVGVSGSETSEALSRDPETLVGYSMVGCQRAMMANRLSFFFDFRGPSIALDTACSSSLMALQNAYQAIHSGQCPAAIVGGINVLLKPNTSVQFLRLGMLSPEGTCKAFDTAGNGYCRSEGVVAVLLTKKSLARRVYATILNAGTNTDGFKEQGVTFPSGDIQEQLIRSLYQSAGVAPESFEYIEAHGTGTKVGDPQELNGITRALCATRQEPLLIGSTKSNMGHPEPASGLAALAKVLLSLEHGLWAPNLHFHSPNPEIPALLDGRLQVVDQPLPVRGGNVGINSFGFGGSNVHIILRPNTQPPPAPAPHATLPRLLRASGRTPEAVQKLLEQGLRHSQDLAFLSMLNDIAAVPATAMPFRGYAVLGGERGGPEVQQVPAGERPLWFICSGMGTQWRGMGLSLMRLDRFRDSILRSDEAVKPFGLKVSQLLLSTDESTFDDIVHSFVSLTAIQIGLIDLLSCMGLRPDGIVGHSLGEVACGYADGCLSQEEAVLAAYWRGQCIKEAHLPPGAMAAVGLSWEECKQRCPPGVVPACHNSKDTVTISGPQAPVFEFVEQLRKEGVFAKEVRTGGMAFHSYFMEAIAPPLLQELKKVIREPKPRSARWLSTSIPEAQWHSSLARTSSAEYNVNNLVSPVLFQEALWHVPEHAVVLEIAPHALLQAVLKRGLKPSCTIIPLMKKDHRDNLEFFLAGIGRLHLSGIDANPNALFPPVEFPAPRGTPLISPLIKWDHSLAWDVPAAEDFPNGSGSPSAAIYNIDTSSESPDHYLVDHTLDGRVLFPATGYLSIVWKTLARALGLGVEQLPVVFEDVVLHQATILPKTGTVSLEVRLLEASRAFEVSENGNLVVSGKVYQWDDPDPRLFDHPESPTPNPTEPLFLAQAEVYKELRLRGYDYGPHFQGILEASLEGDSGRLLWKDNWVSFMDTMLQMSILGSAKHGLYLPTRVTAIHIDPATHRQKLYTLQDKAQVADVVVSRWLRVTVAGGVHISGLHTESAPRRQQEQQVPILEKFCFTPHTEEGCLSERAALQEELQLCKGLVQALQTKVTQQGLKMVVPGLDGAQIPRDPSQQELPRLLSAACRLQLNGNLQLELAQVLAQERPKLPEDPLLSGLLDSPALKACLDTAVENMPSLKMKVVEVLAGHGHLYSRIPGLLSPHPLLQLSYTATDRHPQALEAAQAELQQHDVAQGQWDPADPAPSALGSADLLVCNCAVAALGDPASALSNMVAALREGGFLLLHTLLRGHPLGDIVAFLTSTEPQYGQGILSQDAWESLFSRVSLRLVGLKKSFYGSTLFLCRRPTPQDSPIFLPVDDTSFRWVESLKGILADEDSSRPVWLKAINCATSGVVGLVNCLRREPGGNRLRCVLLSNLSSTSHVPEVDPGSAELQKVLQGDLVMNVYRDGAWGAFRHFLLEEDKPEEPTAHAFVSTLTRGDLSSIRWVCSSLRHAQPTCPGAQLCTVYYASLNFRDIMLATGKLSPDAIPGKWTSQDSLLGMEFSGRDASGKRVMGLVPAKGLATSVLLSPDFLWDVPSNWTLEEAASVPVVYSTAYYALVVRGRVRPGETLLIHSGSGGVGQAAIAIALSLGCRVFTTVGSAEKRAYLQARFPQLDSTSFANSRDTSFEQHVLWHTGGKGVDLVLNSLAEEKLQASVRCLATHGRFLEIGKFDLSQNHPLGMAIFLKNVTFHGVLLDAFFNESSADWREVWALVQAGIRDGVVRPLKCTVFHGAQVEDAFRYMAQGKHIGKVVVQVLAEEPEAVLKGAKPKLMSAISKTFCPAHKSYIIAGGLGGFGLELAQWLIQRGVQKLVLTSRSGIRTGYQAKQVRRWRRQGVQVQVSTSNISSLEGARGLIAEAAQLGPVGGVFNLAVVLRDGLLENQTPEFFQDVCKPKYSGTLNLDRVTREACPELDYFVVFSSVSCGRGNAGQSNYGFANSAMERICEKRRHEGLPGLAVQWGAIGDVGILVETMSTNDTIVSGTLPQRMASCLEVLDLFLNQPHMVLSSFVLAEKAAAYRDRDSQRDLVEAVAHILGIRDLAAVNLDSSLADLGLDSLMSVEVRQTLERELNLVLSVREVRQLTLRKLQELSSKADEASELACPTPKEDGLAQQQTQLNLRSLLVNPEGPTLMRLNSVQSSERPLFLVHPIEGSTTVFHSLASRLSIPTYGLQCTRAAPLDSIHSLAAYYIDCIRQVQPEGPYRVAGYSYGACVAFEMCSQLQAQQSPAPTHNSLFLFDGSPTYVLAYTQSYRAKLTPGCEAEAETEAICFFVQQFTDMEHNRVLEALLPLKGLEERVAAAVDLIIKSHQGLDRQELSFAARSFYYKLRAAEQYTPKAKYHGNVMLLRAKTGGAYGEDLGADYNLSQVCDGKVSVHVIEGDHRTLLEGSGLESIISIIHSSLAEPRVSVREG

Compound	IC50 [1]	inhibition at 10 µM [2]	IC50 [2]	IC50 [3]
O=C(C1CC1)N1CC(CN2C(=O)C3(CC3)N=C2c2ccc(-c3cc4ccccc4nc3O)cc2)C1 [compound 532, 6-{[1-(Cyclopropylcarbonyl)azetidin-3-yl]methyl}-5-[4-(2-hydroxyquinolin-3-yl)phenyl]-4,6-diazaspiro[2.4]hept-4-en-7-one]	> 10 µM	58%	5.37 µM	> 10 µM
Cc1cc(-c2cccc(S(=O)(=O)C3CC3)c2)ccc1C1=NC2(CC2)C(=O)N1CC1CN(C(=O)C2CC2)C1 [compound 640, 6-{[1-(Cyclopropylcarbonyl)azetidin-3-yl]methyl}-5-[3′-(cyclopropylsulfonyl)-3-methylbiphenyl-4-yl]-4,6-diazaspiro[2.4]hept-4-en-7-one]	8.32 µM	64%	5.37 µM	> 10 µM
O=C(C1CC1)N1CC[C@@H](CN2C(=O)C3(CC3)N=C2c2ccc(-c3cccc(C(F)(F)F)c3)cc2)C1 [compound 126, 6-{[(3R)-1-(Cyclopropylcarbonyl)pyrrolidin-3-yl]methyl}-5-[3′-(trifluoromethyl)biphenyl-4-yl]-4,6-diazaspiro[2.4]hept-4-en-7-one]	> 10 µM	96.3%	0.646 µM	> 10 µM
Cc1cc(-c2ccc3nn(C)c(C#N)c3c2)ccc1C1=NC2(CC2)C(=O)N1CC1CN(C(=O)C2CC2)C1 [compound 610]	2.88 µM	87%	1.05 µM	4.57 µM
CC1(C(=O)N2CC[C@@H](CN3C(=O)C4(CC4)N=C3c3ccc(-c4ccc5cc(F)ccc5c4)cc3F)C2)CC1 [compound 363, (R)-5-(2-fluoro-4-(6-fluoronaphthalen-2-yl)phenyl)-6-((1-(1-methylcyclopropancecarbonyl)pyrrolidin-3-yl)methyl)-4,6-diazaspiro[2.4]hept-4-en-7-one]	~0.00646 µM	94%	0.0398 µM	~1.51 µM
Cn1cc(-c2ccc(-c3ccc(C4=NC5(CC5)C(=O)N4C[C@@H]4CCN(C(=O)C5(C)CC5)C4)c(F)c3)cc2)cn1 [compound 364, (R)-5-(3-fluoro-4′-(1-methyl-1H-pyrazol-4-yl)-[1,1′-biphenyl]-4-yl)-6-((1-(1-methylcyclopropanecarbonyl)pyrrolidin-3-yl)methyl)-4,6-diazaspiro[2.4]hept-4-en-7-one]	~0.00295 µM	89%	0.0575 µM	0.229 µM
O=C(C1CC1)N1CC(CN2C(=O)C3(CCCC3)N=C2c2ccc(-c3ccc4[nH]ccc4c3)cc2)C1 [compound 78, 3-{[1-(Cyclopropylcarbonyl)azetidin-3-yl]methyl}-2-[4-(1H-indol-5-yl)phenyl]-1,3-diazaspiro[4.4]non-1-en-4-one]	0.148 µM	111%		> 10 µM
O=C(C1CC1)N1CC(CN2C(=O)C3(CC3)N=C2c2ccc(-c3cccc(S(=O)(=O)C4CC4)c3)cc2F)C1 [compound 651, 6-{[1-(Cyclopropylcarbonyl)azetidin-3-yl]methyl}-5-[3′-(cyclopropylsulfonyl)-3-fluorobiphenyl-4-yl]-4,6-diazaspiro[2.4]hept-4-en-7-one]	2.75 µM	77%	3.09 µM	> 10 µM
O=C(C1CC1)N1CC(CN2C(=O)C3(CC3)N=C2c2ccc(-c3ccc4nn(CC5CC5)cc4c3)cc2F)C1 [compound 524, 6-{[1-(Cyclopropylcarbonyl)azetidin-3-yl]methyl}-5-{4-[2-(cyclopropylmethyl)-2H-indazol-5-yl]-2-fluorophenyl}-4,6-diazaspiro[2.4]hept-4-en-7-one]	4.9 µM	73%	2.09 µM	> 10 µM
O=C(C1CC1)N1CC(CN2C(=O)C3(CC3)N=C2c2ccc(-c3cc4cn(CCO)nc4cc3F)cc2)C1 [compound 553, 6-{[1-(Cyclopropylcarbonyl)azetidin-3-yl]methyl}-5-{4-[6-fluoro-2-(2-hydroxyethyl)-2H-indazol-5-yl]phenyl}-4,6-diazaspiro[2.4]hept-4-en-7-one]	2.75 µM	85%	1.35 µM	> 10 µM

Second part, the compound after the results:

IC50 [1]	inhibition at 10 µM [2]	IC50 [2]	IC50 [3]	Compound
2.45 µM	67%	2.34 µM	> 10 µM	Cn1nccc1-c1ccc(-c2ccc(C3=NC4(CC4)C(=O)N3CC3CN(C(=O)C4(O)CC4)C3)c(F)c2)cc1 [compound 577, 5-[3-Fluoro-4′-(1-methyl-1H-pyrazol-5-yl)biphenyl-4-yl]-6-({1-[(1-hydroxycyclopropyl)carbonyl]azetidin-3-yl}methyl)-4,6-diazaspiro[2.4]hept-4-en-7-one]
7.76 µM	55%	7.41 µM	> 10 µM	Cc1cc(-c2cc(Cl)c3cn[nH]c3c2)ccc1C1=NC2(CC2)C(=O)N1CC1CN(C(=O)C2CC2)C1 [compound 629, 5-[4-(4-Chloro-1H-indazol-6-yl)-2-methylphenyl]-6-{[1-(cyclopropylcarbonyl)azetidin-3-yl]methyl}-4,6-diazaspiro[2.4]hept-4-en-7-one]
> 10 µM	10%	> 10 µM	> 10 µM	CS(=O)(=O)N1CCC(CN2C(=O)C3(CCOC3)N=C2c2ccc(-c3ccc4cccnc4c3)cc2)C1 (stereo not shown) [compound 896, 3-((1-(methylsulfonyl)pyrrolidin-3-yl)methyl)-2-(4-(quinolin-7-yl)phenyl)-7-oxa-1,3-diazaspiro[4.4]non-1-en-4-one]
0.933 µM	107%	0.49 µM	7.59 µM	Cn1ncc2cc(-c3ccc(C4=NC5(CCN(CCO)CC5)C(=O)N4C[C@@H]4CCN(C(=O)C5CC5)C4)cc3)ccc21 [compound 127, (R)-3-((1-(Cyclopropanecarbonyl)pyrrolidin-3-yl)methyl)-8-(2-hydroxyethyl)-2-(4-(1-methyl-1H-indazol-5-yl)phenyl)-1,3,8-triazaspiro[4.5]dec-1-en-4-one]
2 µM	68%	3.02 µM	> 10 µM	CS(=O)(=O)c1cccc(-c2ccc(C3=NC4(CC4)C(=O)N3C[C@@H]3CCN(C(=O)C4CC4)C3)c(F)c2)c1 [compound 634, 6-{[(3R)-1-(Cyclopropylcarbonyl)pyrrolidin-3-yl]methyl}-5-[3-fluoro-3′-(methylsulfonyl)biphenyl-4-yl]-4,6-diazaspiro[2.4]hept-4-en-7-one]
2.45 µM	88%	1.17 µM	> 10 µM	Cc1cc(-c2cccc(S(=O)(=O)C3CC3)c2)ccc1C1=NC2(CC2)C(=O)N1C[C@@H]1CCN(C(=O)C2CC2)C1 [compound 646, 6-{[(3R)-1-(Cyclopropylcarbonyl)pyrrolidin-3-yl]methyl}-5-[3′-(cyclopropylsulfonyl)-3-methylbiphenyl-4-yl]-4,6-diazaspiro[2.4]hept-4-en-7-one]
5.89 µM	47%	8.51 µM	> 10 µM	CC(C)S(=O)(=O)c1cccc(-c2ccc(C3=NC4(CC4)C(=O)N3CC3CN(C(=O)C4CC4)C3)c(F)c2)c1 [compound 631, 6-{[1-(Cyclopropylcarbonyl)azetidin-3-yl]methyl}-5-{3-fluoro-3′-[(1-methylethyl)sulfonyl]biphenyl-4-yl}-4,6-diazaspiro[2.4]hept-4-en-7-one]
~1.95 µM	83%	1.58 µM	> 10 µM	O=C(C1CC1)N1CC(CN2C(=O)C3(CC3)N=C2c2ccc(-c3ccc4c(cnn4CCO)c3)cc2F)C1 [compound 527, 6-{[1-(Cyclopropylcarbonyl)azetidin-3-yl]methyl}-5-{2-fluoro-4-[1-(2-hydroxyethyl)-1H-indazol-5-yl]phenyl}-4,6-diazaspiro[2.4]hept-4-en-7-one]
> 10 µM	25%	> 10 µM	> 10 µM	Cc1cc(-c2cccc(S(=O)(=O)C(C)C)c2)ccc1C1=NC2(CC2)C(=O)N1CC1CN(C(=O)C2CC2)C1 [compound 776, 6-((1-(cyclopropanecarbonyl)azetidin-3-yl)methyl)-5-(3′-(isopropylsulfonyl)-3-methyl-[1,1′-biphenyl]-4-yl)-4,6-diazaspiro[2.4]hept-4-en-7-one]
> 10 µM	54%	~6.31 µM	> 10 µM	O=C(C1CC1)N1CC(CN2C(=O)C3(CC3)N=C2c2ccc(-c3ccc4nncn4c3)cc2)C1 [compound 539, 6-{[1-(Cyclopropylcarbonyl)azetidin-3-yl]methyl}-5-(4-[1,2,4]triazolo[4,3-a]pyridin-6-ylphenyl)-4,6-diazaspiro[2.4]hept-4-en-7-one]
6.61 µM	53%		7.76 µM	Cc1cc(Cl)c2ccc(-c3ccc(C4=NC5(CC5)C(=O)N4CC4CN(C(=O)C5CC5)C4)cc3)cc2n1 [compound 535, 5-[4-(4-Chloro-2-methylquinolin-7-yl)phenyl]-6-{[1-(cyclopropylcarbonyl)azetidin-3-yl]methyl}-4,6-diazaspiro[2.4]hept-4-en-7-one]

From patent publication US10077261B2, “Imidazolin-5-one derivative useful as FASN inhibitors for the treatment of cancer” (Janssen Pharmaceutica NV, priority 2012, dated 2018)
